Measured values: patent publication US11186587B2, “Compound as ACC inhibitor and use thereof” (NANJING SANHOME PHARMACEUTICAL CO., LTD., priority 2017, dated 2021)

How the values were obtained:
[1] = molecular target: ACC1 (Homo sapiens (Human), UniProt Q13085); test: ACC1 enzyme activity assay (ADP-Glo); format: biochemical; conditions: ACC1 enzyme 2 nM working solution, room temperature
Experimental: (§1) Compound preparation: the compounds of the present disclosure prepared in the above examples and the control compound were respectively formulated into 10 mM with DMSO for use.
(§2) Preparation of 1× reaction buffer (pH=7.4): HEPES stock solutions (1 M), MgCl2 (1 M), BRIJ-35 (10%), potassium citrate buffer (1 M), BSA (10 mg/mL) and DTT (500 mM) were formulated to enzyme reaction buffer containing HEPES (50 mM), MgCl2 (2 mM), BRIJ-35 (0.01%), potassium citrate buffer (2 mM), BSA (50 Gg/mL) and DTT (2 mM).
4.5 μL of 2.2×ACC1 enzyme (2 nM) working solution was added to a 384-well plate; and then 0.5 μL of different concentrations of compound were added. The mixture was incubated at room temperature for 15 min.
(§3) Negative control group: menstruum containing 5% DMSO; positive control group: menstruum containing 100 nM ND-630. The average values of each concentration and the positive and negative controls were calculated, and the standard deviation was calculated. […] The inhibition rate data was fitted by nonlinear regression equation to calculate IC50 of each compound. The nonlinear regression equation was Y=lowest value+(highest value−lowest value)/(1+10^((Log IC50−X)×HillSlope)), among which X is logarithm of the compound concentration and Y is inhibition percent (%).

[2] = molecular target: ACC2 (Homo sapiens (Human), UniProt O00763); test: ACC2 enzyme activity assay (ADP-Glo); format: biochemical; conditions: ACC2 enzyme 1.1 nM working solution, room temperature
ACC2, sequence (O00763 whole entry): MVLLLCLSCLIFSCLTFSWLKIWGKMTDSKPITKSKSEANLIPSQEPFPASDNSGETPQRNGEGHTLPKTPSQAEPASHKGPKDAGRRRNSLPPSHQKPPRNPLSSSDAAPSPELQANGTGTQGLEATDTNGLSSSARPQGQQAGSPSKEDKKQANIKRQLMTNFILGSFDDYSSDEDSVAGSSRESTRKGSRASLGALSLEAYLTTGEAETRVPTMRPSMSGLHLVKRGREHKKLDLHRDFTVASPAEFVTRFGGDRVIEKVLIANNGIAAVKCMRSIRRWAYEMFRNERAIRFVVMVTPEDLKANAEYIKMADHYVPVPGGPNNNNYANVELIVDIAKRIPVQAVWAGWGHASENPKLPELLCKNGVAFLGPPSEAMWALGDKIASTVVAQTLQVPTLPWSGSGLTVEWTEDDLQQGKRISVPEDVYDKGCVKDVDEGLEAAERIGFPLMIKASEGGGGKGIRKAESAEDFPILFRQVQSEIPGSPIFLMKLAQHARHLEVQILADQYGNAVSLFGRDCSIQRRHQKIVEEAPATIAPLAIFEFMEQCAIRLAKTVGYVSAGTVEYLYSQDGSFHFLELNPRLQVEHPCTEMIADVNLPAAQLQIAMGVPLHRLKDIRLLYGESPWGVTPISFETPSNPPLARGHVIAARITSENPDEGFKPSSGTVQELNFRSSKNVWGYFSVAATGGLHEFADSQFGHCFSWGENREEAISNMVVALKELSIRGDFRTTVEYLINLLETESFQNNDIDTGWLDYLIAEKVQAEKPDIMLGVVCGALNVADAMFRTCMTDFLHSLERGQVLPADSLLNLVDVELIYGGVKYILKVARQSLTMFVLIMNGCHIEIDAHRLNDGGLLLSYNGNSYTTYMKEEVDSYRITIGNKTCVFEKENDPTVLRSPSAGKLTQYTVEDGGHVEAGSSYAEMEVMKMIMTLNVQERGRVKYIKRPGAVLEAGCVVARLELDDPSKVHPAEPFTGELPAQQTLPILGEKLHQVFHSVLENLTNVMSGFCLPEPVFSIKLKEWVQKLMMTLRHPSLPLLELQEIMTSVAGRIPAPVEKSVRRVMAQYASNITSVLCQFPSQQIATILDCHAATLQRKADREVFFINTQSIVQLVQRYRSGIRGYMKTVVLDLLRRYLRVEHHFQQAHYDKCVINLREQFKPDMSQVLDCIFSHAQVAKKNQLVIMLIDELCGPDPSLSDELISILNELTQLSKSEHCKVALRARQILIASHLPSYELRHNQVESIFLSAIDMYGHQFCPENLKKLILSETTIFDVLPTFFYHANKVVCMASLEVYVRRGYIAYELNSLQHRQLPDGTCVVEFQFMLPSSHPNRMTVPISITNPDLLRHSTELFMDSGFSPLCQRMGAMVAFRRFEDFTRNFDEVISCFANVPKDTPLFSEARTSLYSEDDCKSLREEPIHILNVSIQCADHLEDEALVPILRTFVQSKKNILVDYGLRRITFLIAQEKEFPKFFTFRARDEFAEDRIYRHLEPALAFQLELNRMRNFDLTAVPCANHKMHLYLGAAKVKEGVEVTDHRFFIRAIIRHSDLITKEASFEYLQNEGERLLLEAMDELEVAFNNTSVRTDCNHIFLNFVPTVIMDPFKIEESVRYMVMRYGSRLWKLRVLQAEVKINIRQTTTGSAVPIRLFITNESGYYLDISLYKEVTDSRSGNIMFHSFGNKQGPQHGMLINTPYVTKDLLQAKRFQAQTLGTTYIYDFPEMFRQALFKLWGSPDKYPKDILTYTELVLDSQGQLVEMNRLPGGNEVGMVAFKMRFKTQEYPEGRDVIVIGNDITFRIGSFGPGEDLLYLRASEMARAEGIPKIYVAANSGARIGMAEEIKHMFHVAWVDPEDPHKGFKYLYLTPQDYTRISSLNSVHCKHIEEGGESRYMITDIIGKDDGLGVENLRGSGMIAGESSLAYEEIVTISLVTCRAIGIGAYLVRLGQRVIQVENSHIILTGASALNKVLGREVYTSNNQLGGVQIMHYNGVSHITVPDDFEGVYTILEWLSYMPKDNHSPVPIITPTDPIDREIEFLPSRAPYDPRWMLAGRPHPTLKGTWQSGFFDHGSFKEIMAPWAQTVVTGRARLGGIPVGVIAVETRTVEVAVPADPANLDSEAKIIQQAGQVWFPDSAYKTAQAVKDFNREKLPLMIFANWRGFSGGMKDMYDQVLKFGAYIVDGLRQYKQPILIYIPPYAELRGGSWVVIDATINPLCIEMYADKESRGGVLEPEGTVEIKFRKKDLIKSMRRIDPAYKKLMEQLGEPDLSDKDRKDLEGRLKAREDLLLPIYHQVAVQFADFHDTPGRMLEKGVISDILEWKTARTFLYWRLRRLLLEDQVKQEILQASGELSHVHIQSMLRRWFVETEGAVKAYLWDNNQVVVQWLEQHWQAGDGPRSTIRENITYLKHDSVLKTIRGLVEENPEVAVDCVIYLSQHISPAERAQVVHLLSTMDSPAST
Experimental: as §1, §2
The mixture was incubated at room temperature for 15 min.
as §3

IC50 [1] [nM]	IC50 [2] [nM]	SMILES
2.81	9.64	COc1ccccc1C(Cn1c(=O)n(C2CNC2)c(=O)c2c(C)c(-c3ncco3)sc21)OC1CCOCC1 (stereo not shown) [Example 6, 3-(azetidin-3-yl)-1-(2-(2-methoxyphenyl)-2-((tetrahydro-2H-pyran-4-yl)oxy)ethyl)-5-methyl-6-(oxazol-2-yl)thieno[2,3-d]pyrimidine-2,4(1H,3H)-dione]
1.12	13.1	COc1ccccc1C(Cn1c(=O)n(C2CN(C(=O)C3CC3)C2)c(=O)c2c(C)c(-c3ncco3)sc21)OC1CCOCC1 (stereo not shown) [Example 8, 3-(1-(cyclopropanecarbonyl)azetidin-3-yl)-1-(2-(2-methoxyphenyl)-2-((tetrahydro-2H-pyran-4-yl)oxy)ethyl)-5-methyl-6-thieno[2,3-d]pyrimidine-2,4(1H,3H)-dione]
1.35	6.85	CCS(=O)(=O)N1CC(n2c(=O)c3c(C)c(-c4ncco4)sc3n(CC(OC3CCOCC3)c3ccccc3OC)c2=O)C1 (stereo not shown) [Example 10, 3-(1-(ethylsulfonyl)azetidin-3-yl)-1-(2-(2-methoxyphenyl)-2-((tetrahydro-2H-pyran-4-yl)oxy)ethyl)-5-methyl-6-(oxazol-2-yl)thieno[2,3-d]pyrimidine-2,4(1H, 3H)-dione]
7.66	–	COc1ccccc1C(Cn1c(=O)n(C(C)(C)C(=O)O)c(=O)c2c(C)c(-c3ncco3)sc21)OC1CCNCC1 (stereo not shown) [Example 17]
0.7	–	COc1ccccc1C(Cn1c(=O)n(C(C)(C)C(=O)O)c(=O)c2c(C)c(-c3ncco3)sc21)OC1CCN(C(=O)C2CC2)CC1 (stereo not shown) [Example 21]
0.87	10.3	COc1ccccc1C(Cn1c(=O)n(-c2ccc(C(=O)O)cc2OC)c(=O)c2c(C)c(-c3ncco3)sc21)OC1CCOCC1 (stereo not shown) [Example 26, 3-methoxy-4-(1-(2-(2-methoxyphenyl)-2-((tetrahydro-2H-pyran-4-yl)oxy)ethyl)-5-methyl-6-(oxazol-2-yl)-2,4-dioxo-1,4-dihydrothieno[2,3-d]pyrimidin-3(2H)-yl)benzoic Acid]
11.8	–	COc1ccccc1C(Cn1c(=O)n(-c2cc(C(=O)O)ccc2OC)c(=O)c2c(C)c(-c3ncco3)sc21)OC1CCOCC1 (stereo not shown) [Example 27]
1.48	7.8	COc1ccccc1C(Cn1c(=O)n(-c2cccc(C(=O)O)c2F)c(=O)c2c(C)c(-c3ncco3)sc21)OC1CCOCC1 (stereo not shown) [Example 28, 2-Fluoro-3-(1-(2-(2-methoxyphenyl)-2-((tetrahydro-2H-pyran-4-yl)oxy)ethyl)-5-methyl-6-(oxazol-2-yl)-2,4-dioxo-1,4-dihydrothieno[2,3-d]pyrimidin-3(2H)-yl)benzoic Acid]

The next lines start with the compound.

SMILES	IC50 [1] [nM]	IC50 [2] [nM]
COc1ccccc1C(Cn1c(=O)n(C2CC(F)(F)C2)c(=O)c2c(C)c(-c3ncco3)sc21)OC1CCOCC1 (stereo not shown) [Example 2, 3-(3,3-Difluorocyclobutyl)-1-(2-(2-methoxyphenyl)-2-((tetrahydro-2H-pyran-4-yl)oxy)ethyl)-5-methyl-6-(oxazol-2-yl)thieno[2,3-d]pyrimidine-2,4(1H,3H)-dione]	8.7	–
COc1ccccc1[C@H](Cn1c(=O)n([C@H]2C[C@](C)(C(=O)O)C2)c(=O)c2c(C)c(-c3ncco3)sc21)OC1CCOCC1 [Example 3, (1R,3r)-3-(1-((R)-2-(2-methoxyphenyl)-2-((tetrahydro-2H-pyran-4-yl)oxy)ethyl)-5-methyl-6-(oxazol-2-yl)-2,4-dioxo-1,4-dihydrothieno[2,3-d]pyrimidine-3(2H)-yl)-1-methylcyclobutanecarboxylic Acid]	1	11.9
COc1ccccc1C(Cn1c(=O)n(-c2c(C)ccn3ccnc23)c(=O)c2c(C)c(-c3ncco3)sc21)OC1CCOCC1 (stereo not shown) [Example 5, 1-(2-(2-methoxyphenyl)-2-((tetrahydro-2H-pyran-4-yl)oxy)ethyl)-5-methyl-3-(7-methylimidazo[1,2-a]pyridin-8-yl)-6-(oxazol-2-yl)thieno[2,3-d]pyrimidine-2,4(1H, 3H)-diketone]	38.5	–
COc1ccccc1C(Cn1c(=O)n(C2CN(S(C)(=O)=O)C2)c(=O)c2c(C)c(-c3ncco3)sc21)OC1CCOCC1 (stereo not shown) [Example 9, 1-(2-(2-methoxyphenyl)-2-((tetrahydro-2H-pyran-4-yl)oxy)ethyl)-5-methyl-3-(1-(methylsulfonyl)azetidin-3-yl)-6-(oxazol-2-yl)thieno[2,3-d]pyrimidine-2,4(1H,3H)-dione]	2.03	7.92
COc1ccccc1C(Cn1c(=O)n(C2CN(C(=O)c3ccccc3)C2)c(=O)c2c(C)c(-c3ncco3)sc21)OC1CCOCC1 (stereo not shown) [Example 11, 3-(1-benzoylazetidin-3-yl)-1-(2-(2-methoxyphenyl)-2-((tetrahydro-2H-pyran-4-yl)oxy)ethyl)-5-methyl-6-(oxazol-2-yl)thieno[2,3-d]pyrimidine-2,4(1H,3H)-dione]	4.5	–
COc1ccccc1C(Cn1c(=O)n(C2CN(C(=O)N3CCOCC3)C2)c(=O)c2c(C)c(-c3ncco3)sc21)OC1CCOCC1 (stereo not shown) [Example 12, 1-(2-(2-methoxyphenyl)-2-((tetrahydro-2H-pyran-4-yl)oxy)ethyl)-5-methyl-3-(1-(morpholine-4-formyl)azetidin-3-yl)-6-(oxazol-2-yl)thieno[2,3-d]pyrimidine-2,4(1H,3H)-dione]	1.22	8.04
COc1ccccc1C(Cn1c(=O)n(C2CN(C(=O)c3ccccn3)C2)c(=O)c2c(C)c(-c3ncco3)sc21)OC1CCOCC1 (stereo not shown) [Example 13, 1-(2-(2-methoxyphenyl)-2-((tetrahydro-2H-pyran-4-yl)oxy)ethyl)-5-methyl-6-(oxazol-2-yl)-3-(1-pyridineformylazetidin-3-yl)thieno[2,3-d]pyrimidine-2,4(1H,3H)-dione]	2.33	11.6
COc1ccccc1C(Cn1c(=O)n(C2CN(C(=O)c3ncc[nH]3)C2)c(=O)c2c(C)c(-c3ncco3)sc21)OC1CCOCC1 (stereo not shown) [Example 14]	1.69	7.85
COc1ccccc1C(Cn1c(=O)n(C2CN(C(=O)N3CC(C)(C(=O)O)C3)C2)c(=O)c2c(C)c(-c3ncco3)sc21)OC1CCOCC1 (stereo not shown) [Example 15, 1-(3-(1-(2-(2-methoxyphenyl)-2-((tetrahydro-2H-pyran-4-yl)oxy)ethyl)-5-methyl-6-(oxazol-2-yl)-2,4-dioxo-1,2-dihydrothieno[2,3-d]pyrimidin-3 (4H)-yl)azetidine-1-carbonyl)-3-methylazetidine-3-carboxylic Acid]	8.79	–
COc1ccccc1C(Cn1c(=O)n(C2CN(C(=O)N3CC(C)(O)C3)C2)c(=O)c2c(C)c(-c3ncco3)sc21)OC1CCOCC1 (stereo not shown) [Example 16, 3-(1-(3-Hydroxy-3-methylazetidin-1-oyl)azetidin-3-yl)-1-(2-(2-methoxyphenyl)-2-((tetrahydro-2H-pyran-4-yl)oxy)ethyl)-5-methyl-6-(oxazol-2-yl)thieno[2,3-d]pyrimidine-2,4(1H,3H)-dione]	6.89	–
COc1ccccc1C(Cn1c(=O)n(C(C)(C)C(=O)O)c(=O)c2c(C)c(-c3ncco3)sc21)N1CCCCC1 (stereo not shown) [Example 18, 2-(1-(2-(2-methoxyphenyl)-2-(piperidin-1-yl)ethyl)-5-methyl-6-(oxazol-2-yl)-2,4-dioxo-1,4-dihydrothieno[2,3-d]pyrimidin-3(2H)-yl)-2-methylpropionic Acid]	> 1000	–
COc1ccccc1C(Cn1c(=O)n(C(C)(C)C(=O)O)c(=O)c2c(C)c(-c3ncco3)sc21)OC1CCN(C)CC1 (stereo not shown) [Example 19, 2-(1-(2-(2-methoxyphenyl)-2-((1-methylpiperidin-4-yl)oxy)ethyl)-5-methyl-6-(oxazol-2-yl)-2,4-dioxo-1,4-dihydrothieno[2,3-d]pyrimidin-3(2H)-yl)-2-methylpropionic Acid]	23.3	–
COc1ccccc1C(Cn1c(=O)n(C(C)(C)C(=O)O)c(=O)c2c(C)c(-c3ncco3)sc21)OC1CCN(C(C)=O)CC1 (stereo not shown) [Example 20, 2-(1-(2-((1-acetylpiperidin-4-yl)oxy)-2-(2-methoxyphenyl)ethyl)-5-methyl-6-(oxazol-2-yl)-2,4-dioxo-1,4-dihydrothieno[2,3-d]pyrimidin-3(2H)-yl)-2-methylpropionic Acid]	0.91	8.03
COc1ccccc1C(Cn1c(=O)n(C(C)(C)C(=O)O)c(=O)c2c(C)c(-c3ncco3)sc21)OC1CCN(S(C)(=O)=O)CC1 (stereo not shown) [Example 22]	0.63	5.13
COc1ccccc1C(Cn1c(=O)n(C(C)(C)C(=O)O)c(=O)c2c(C)c(-c3ncco3)sc21)OC1CN(C(C)=O)C1 (stereo not shown) [Example 23]	11.5	–
COc1ccccc1C(Cn1c(=O)n(-c2cc(C(=O)O)ccc2F)c(=O)c2c(C)c(-c3ncco3)sc21)OC1CCOCC1 (stereo not shown) [Example 30, 4-Fluoro-3-(1-(2-(2-methoxyphenyl)-2-((tetrahydro-2H-pyran-4-yl)oxy)ethyl)-5-methyl-6-(oxazol-2-yl)-2,4-dioxo-1,4-dihydrothieno[2,3-d]pyrimidin-3(2H)-yl)benzoic Acid]	7.97	–
COc1ccccc1C(Cn1c(=O)n(C2CC(OCCF)C2)c(=O)c2c(C)c(-c3ncco3)sc21)OC1CCOCC1 (stereo not shown) [Example 31]	136	–
